Experimental data taken from patent US9586931B2 (Merck Sharp & Dohme Corp., priority 2012, dated 2017).

Each molecule was assayed against T1, recombinant human GST-Syk (Homo sapiens, UniProt P43405) (assay: Homogeneous Time-Resolved Fluorescence (HTRF) assay for the recombinant human Syk enzyme). Settings: recombinant human GST-Syk 5 pM, ATP 25 μM, 10-dose titration 10 μM to 0.508 nM; read-out: rhSYK Activity IC50.
T1 construct: purchased Carna Biosciences 08-176
Format: biochemical
Experimental: Syk inhibition may be determined using the following assay protocol:
Homogeneous Time-Resolved Fluorescence (HTRF) assay for the recombinant human Syk enzyme: A recombinant GST-hSyk fusion protein was used to measure potency of compounds to inhibit human Syk activity. […] Final volume of the reaction was 10 μL. Phosphorylation of the peptide was allowed to proceed for 45 minutes at room temperature. To quench the reaction and detect the phosphorylated product, 2 nM of a Europium-anti-phosphotyrosine antibody (Perkin Elmer #AD0161) and 70 nM SA-APC (Perkin-Elmer #CR130-100) were added together in 15 mM Tris pH 7.5, 40 mM EDTA, 0.01% tween 20. Final volume of the quenching solution was 10 μL. The resulting HTRF signal was measured after 30 minutes on an EnVision (Perkin-Elmer) reader using a time-resolved fluorescence protocol.

SMILES	IC50
COCC(O)Cn1cc(-c2cc(C)cc(Nc3cc(C(F)(F)F)ccn3)n2)nn1 (centres unmarked) [Example 4.23, 1-methoxy-3-[4-(4-methyl-6-{[4-(trifluoromethyl)pyridin-2-yl]amino}pyridin-2-yl)-1H-1,2,3-triazol-1-yl]propan-2-ol]	5.4 nM
Cc1cc(Nc2cc(C(F)(F)F)ccn2)nc(-c2cn(C3CCCCC3O)nn2)c1 (racemic) [Example 5.89, 2-[4-(4-methyl-6-{[4-(trifluoromethyl)pyridin-2-yl]amino}pyridin-2-yl)-1H-1,2,3-triazol-1-yl]cyclohexanol]	4 nM
Cc1cc(Nc2cc(C(F)(F)F)ccn2)nc(-c2cn([C@H](C)C(=O)N3CCC[C@H]3C(=O)O)nn2)c1 [Example 3.12, 1-{(2R)-2-[4-(4-methyl-6-{[4-(trifluoromethyl)pyridin-2-yl]amino}pyridin-2-yl)-1H-1,2,3-triazol-1-yl]propanoyl}proline]	105 nM
Cc1cc(Nc2nccc(C(F)F)n2)cc(-c2cn(Cc3ccc(=O)[nH]c3)nn2)c1 [Example 33, 5-((4-(3-((4-(Difluoromethyl)pyrimidin-2-yl)amino)-5-methylphenyl)-1H-1,2,3-triazol-1-yl)methyl)pyridin-2(3H)-one]	3.7 nM
Cc1cc(Nc2cc(C(F)(F)F)ccn2)nc(-c2cn(C(C)C(O)CC#N)nn2)c1 (centres unmarked) [Example 4.2, 3-hydroxy-4-[4-(4-methyl-6-{[4-(trifluoromethyl)pyridin-2-yl]amino}pyridin-2-yl)-1H-1,2,3-triazol-1-yl]pentanenitrile]	12.8 nM
Cc1ccnc(Nc2cc(C)cc(-c3cn(CC(O)C(F)(F)F)nn3)n2)c1 (racemic) [Example 5.17, 1,1,1-trifluoro-3-(4-{4-methyl-6-[(4-methylpyridin-2-yl)amino]pyridin-2-yl}-1H-1,2,3-triazol-1-yl)propan-2-ol]	128 nM
Cc1cc(Nc2cc(C(C)O)ccn2)nc(-c2cn(C(C)c3ccc(C(=O)O)cc3)nn2)c1 (centres unmarked) [Example 2.3, 4-{1-[4-(6-{[4-(1-hydroxyethyl)pyridin-2-yl]amino}-4-methylpyridin-2-yl)-1H-1,2,3-triazol-1-yl]ethyl}benzoic acid]	21.1 nM
Cc1cc(Nc2cc(C(F)(F)F)ccn2)nc(-c2cn(C(C)C(=O)N3CCN(Cc4ccccc4)C(c4ccccc4)C3)nn2)c1 (centres unmarked) [Example 1.50, 6-{1-[2-(4-benzyl-3-phenylpiperazin-1-yl)-1-methyl-2-oxoethyl]-1H-1,2,3-triazol-4-yl}-4-methyl-N-[4-(trifluoromethyl)pyridin-2-yl]pyridin-2-amine]	570 nM
Cc1cc(Nc2cc(C(F)(F)F)ccn2)nc(-c2cn(C(C)C(=O)N3CCC(c4ccncc4)C3)nn2)c1 (centres unmarked) [Example 1.53, 4-methyl-6-{1-[1-methyl-2-oxo-2-(3-pyridin-4-ylpyrrolidin-1-yl)ethyl]-1H-1,2,3-triazol-4-yl}-N-[4-(trifluoromethyl)pyridin-2-yl]pyridin-2-amine]	34.7 nM
Cc1cc(Nc2nccc(C)n2)cc(-c2cn(C3CCCCC3(C)O)nn2)c1 (single isomer, unassigned) [Example 7.27, 1-methyl-2-(4-{3-methyl-5-[(4-methylpyrimidin-2-yl)amino]phenyl}-1H-1,2,3-triazol-1-yl)cyclohexanol]	90.4 nM
Cc1cc(Nc2nccc(C(F)(F)F)n2)cc(-c2cn(C(C)C(=O)O)nn2)c1 (racemic) [Example 5.64, 2-[4-(3-methyl-5-{[4-(trifluoromethyl)pyrimidin-2-yl]amino}phenyl)-1H-1,2,3-triazol-1-yl]propanoic acid]	41.4 nM
Cc1cc(Nc2cc(C(F)(F)F)ccn2)nc(-c2cn(C(C)c3ccc(C(=O)O)cc3)nn2)c1 (racemic) [Example 5.41, 4-{1-[4-(4-methyl-6-{[4-(trifluoromethyl)pyridin-2-yl]amino}pyridin-2-yl)-1H-1,2,3-triazol-1-yl]ethyl}benzoic acid]	1.1 nM
Cc1cc(Nc2nccc(C)n2)cc(-c2cn(C3CCCCC3(C)O)nn2)c1 (single isomer, unassigned) [Example 7.28, 1-methyl-2-(4-{3-methyl-5-[(4-methylpyrimidin-2-yl)amino]phenyl}-1H-1,2,3-triazol-1-yl)cyclohexanol]	77.6 nM
Cc1cc(Nc2cc(OC3CCC3)ccn2)nc(-c2cn(C(C)c3ccc(C(=O)O)cc3)nn2)c1 (centres unmarked) [Example 2.8, 4-{1-[4-(6-{[4-(cyclobutyloxy)pyridin-2-yl]amino}-4-methylpyridin-2-yl)-1H-1,2,3-triazol-1-yl]ethyl}benzoic acid]	5050 nM
Cc1cc(Nc2cc(C(F)(F)F)ccn2)nc(-c2cn(CC3(N)CC3)nn2)c1 [Example 5.112, 6-{1-[(1-aminocyclopropyl)methyl]-1H-1,2,3-triazol-4-yl}-4-methyl-N-[4-(trifluoromethyl)pyridin-2-yl]pyridin-2-amine]	17 nM
Cc1cc(Nc2ncc(F)c(C(F)F)n2)cc(-c2cn(CC3OC(=O)NC3C)nn2)c1 (single isomer, unassigned) [Example 7.38, 5-{[4-(3-{[4-(difluoromethyl)-5-fluoropyrimidin-2-yl]amino}-5-methylphenyl)-1H-1,2,3-triazol-1-yl]methyl}-4-methyl-1,3-oxazolidin-2-one]	33.1 nM
Cc1cc(Nc2ncc(F)c(C(F)F)n2)cc(-c2cn(C3CCCCC3(C)O)nn2)c1 (single isomer, unassigned) [Example 7.25, 2-[4-(3-{[4-(difluoromethyl)-5-fluoropyrimidin-2-yl]amino}-5-methylphenyl)-1H-1,2,3-triazol-1-yl]-1-methylcyclohexanol]	38.2 nM
Cc1cc(Nc2cc(C(F)(F)F)ccn2)nc(-c2cn(C[C@H]3CNC(=O)O3)nn2)c1 [Example 5.102, (5R)-5-{[4-(4-methyl-6-{[4-(trifluoromethyl)pyridin-2-yl]amino}pyridin-2-yl)-1H-1,2,3-triazol-1-yl]methyl}-1,3-oxazolidin-2-one]	1.1 nM
Cc1cc(Nc2cc(C(F)(F)F)ccn2)nc(-c2cn(Cc3c[nH]cn3)nn2)c1 [Example 5.108, 6-[1-(1H-imidazol-4-ylmethyl)-1H-1,2,3-triazol-4-yl]-4-methyl-N-[4-(trifluoromethyl)pyridin-2-yl]pyridin-2-amine]	2.5 nM
Cc1cc(Nc2cc(C(F)(F)F)ccn2)nc(-c2cn(C(C)C(=O)NCCc3cn(C)c4ccccc34)nn2)c1 (centres unmarked) [Example 1.51, N-[2-(1-methyl-1H-indol-3-yl)ethyl]-2-[4-(4-methyl-6-{[4-(trifluoromethyl)pyridin-2-yl]amino}pyridin-2-yl)-1H-1,2,3-triazol-1-yl]propanamide]	186 nM

Now from value to molecule:

IC50	SMILES
389 nM	Cc1cc(Nc2cc(C(F)(F)F)ccn2)nc(-c2nncn2C)c1 [Example 16.3, 4-methyl-6-(4-methyl-4H-1,2,4-triazol-3-yl)-N-[4-(trifluoromethyl)pyridin-2-yl]pyridin-2-amine]
44.6 nM	CC(O)(CO)Cn1cc(-c2cccc(Nc3nccc(C(F)(F)F)n3)c2)nn1 (single isomer, unassigned) [Example 21.6, 2-methyl-3-[4-(3-{[4-(trifluoromethyl)pyrimidin-2-yl]amino}phenyl)-1H-1,2,3-triazol-1-yl]propane-1,2-diol]
10.5 nM	Cc1cc(Nc2nccc(C(F)F)n2)cc(-c2cn(C3CCCC(C)(O)C3O)nn2)c1 (single isomer, unassigned) [Example 29.3, 3-(4-(3-((4-(Difluoromethyl)pyrimidin-2-yl)amino)-5-methylphenyl)-1H-1,2,3-triazol-1-yl)-1-methylcyclohexane-1,2-diol]
88.5 nM	Cc1cc(Nc2ncc(Cl)c(C)n2)cc(-c2cn(CC(C)(O)C(C)(C)O)nn2)c1 (centres unmarked) [Example 21.30, 1-(4-{3-[(5-chloro-4-methylpyrimidin-2-yl)amino]-5-methylphenyl}-1H-1,2,3-triazol-1-yl)-2,3-dimethylbutane-2,3-diol]
30.7 nM	Cc1cc(Nc2nccc(C(F)F)n2)cc(-c2cn(C3CCCC(C)(O)C3O)nn2)c1 (single isomer, unassigned) [Example 29.2, 3-(4-(3-((4-(Difluoromethyl)pyrimidin-2-yl)amino)-5-methylphenyl)-1H-1,2,3-triazol-1-yl)-1-methylcyclohexane-1,2-diol]
23.8 nM	Cc1cc(Nc2cc(C(F)(F)F)ccn2)nc(-c2cn(C3CCNC(=O)CC3)nn2)c1 (racemic) [Example 11.2, 5-[4-(4-methyl-6-{[4-(trifluoromethyl)pyridin-2-yl]amino}pyridin-2-yl)-1H-1,2,3-triazol-1-yl]azepan-2-one]
8.4 nM	Cc1cc(Nc2nccc(C(F)F)n2)cc(-c2cn(CC3CNC(=O)C3)nn2)c1 (single isomer, unassigned) [Example 28.1, 4-((4-(3-((4-(difluoromethyl)pyrimidin-2-yl)amino)-5-methylphenyl)-1H-1,2,3-triazol-1-yl)methyl)pyrrolidin-2-one]
14.3 nM	Cc1cc(Nc2nccc(C(F)F)n2)cc(-c2cn(CC3CNCCO3)nn2)c1 (single isomer, unassigned) [Example 22.1, 4-(Difluoromethyl)-N-(3-methyl-5-(1-(morpholin-2-ylmethyl)-1H-1,2,3-triazol-4-yl)phenyl) pyrimidin-2-amine]
47 nM	CC(O)(CO)Cn1cc(-c2cccc(Nc3nccc(C(F)(F)F)n3)c2)nn1 (single isomer, unassigned) [Example 21.5, 2-methyl-3-[4-(3-{[4-(trifluoromethyl)pyrimidin-2-yl]amino}phenyl)-1H-1,2,3-triazol-1-yl]propane-1,2-diol]
